# From patent US4731109A, “Herbicidal 2-haloacetanilides” (Monsanto Company, priority 1982, dated 1988)
# Where two headings read alike, the source gives them in different places.
# Tested on: Barnyardgrass
# Assay: Resistance to leaching and resulting herbicidal efficacy
# Assay type: in vivo
# Conditions: for inhibition at 140 g/ha / inhibition at 560 g/ha / inhibition at 2360 g/ha / inhibition at 2200 g/ha: Echinochloa crus-galli, read-out: Percent Inhibition
# Method: Laboratory tests were conducted to determine the resistance of herbicides according to this invention to leaching into the soil and resulting herbicidal efficacy. […] The pots containing the treated soil were subjected to leaching by placing on a turntable which rotated under two nozzle tips of a water container calibrated to deliver one inch (2.5 cm) of water per hour simulating rainfall. Leaching rates were adjusted by varying the amount of time on the turntable. Water was delivered to the soil in the pots and allowed to percolate through the filter paper and drainage holes. The pots were then allowed to sit for three days at ambient room temperature. The treated soil in the pots was then removed, crumbled and placed as a surface layer on top of other pots containing the above soils seeded with barnyardgrass seeds. The pots were then placed on greenhouse benches, sub-irrigated and allowed to grow for 2-3 weeks. Visual ratings of percent growth inhibition compared to control (untreated) pots and fresh weights for barnyardgrass were recorded; the data from the control represents six replications and that for the test compounds three replications; test data are shown in Table XVIII.
# [1] = Drummer silt clay, 0.14 Kg/Ha, rain 0 cm
# [2] = Drummer silt clay, 0.14 Kg/Ha, rain 1.27 cm
# [3] = Drummer silt clay, 0.14 Kg/Ha, rain 5.08 cm
# [4] = Drummer silt clay, 0.14 Kg/Ha, rain 10.16 cm
# [5] = Drummer silt clay, 0.56 Kg/Ha, rain 0 cm
# [6] = Drummer silt clay, 0.56 Kg/Ha, rain 1.27 cm
# [7] = Drummer silt clay, 0.56 Kg/Ha, rain 5.08 cm
# [8] = Drummer silt clay, 0.56 Kg/Ha, rain 10.16 cm
# [9] = Ray silt loam, 0.14 Kg/Ha, rain 0 cm
# [10] = Ray silt loam, 0.14 Kg/Ha, rain 1.27 cm
# [11] = Ray silt loam, 0.14 Kg/Ha, rain 5.08 cm
# [12] = Ray silt loam, 0.56 Kg/Ha, rain 0 cm
# [13] = Ray silt loam, 0.56 Kg/Ha, rain 1.27 cm
# [14] = Ray silt loam, 0.56 Kg/Ha, rain 5.08 cm
# [15] = Ray silt loam, 0.56 Kg/Ha, rain 10.16 cm
# [16] = Ray silt loam, 2.36 Kg/Ha, rain 0 cm
# [17] = Ray silt loam, 2.36 Kg/Ha, rain 1.27 cm
# [18] = Ray silt loam, 2.36 Kg/Ha, rain 5.08 cm
# [19] = Ray silt loam, 2.36 Kg/Ha, rain 10.16 cm
# [20] = Ray silt loam, 0.14 Kg/Ha, rain 10.16 cm
# [21] = Drummer silt clay, 2.2 Kg/Ha, rain 0 cm
# [22] = Drummer silt clay, 2.2 Kg/Ha, rain 1.27 cm
# [23] = Drummer silt clay, 2.2 Kg/Ha, rain 5.08 cm
# [24] = Drummer silt clay, 2.2 Kg/Ha, rain 10.16 cm
# [25] = Ray silt loam, 0.14 Kg/Ha, rain 10.61 cm
# [26] = Ray silt loam, 2.2 Kg/Ha, rain 0 cm
# [27] = Ray silt loam, 2.2 Kg/Ha, rain 1.27 cm
# [28] = Ray silt loam, 2.2 Kg/Ha, rain 5.08 cm
# [29] = Ray silt loam, 2.2 Kg/Ha, rain 10.16 cm
compound,measurement,setting,value
"CCCOCN(C(=O)CCl)c1c(C)cccc1C(F)(F)F [Example 3, N--(n-propoxymethyl)-2'-trifluoromethyl-6'-methyl-2-chloroacetanilide]",inhibition at 140 g/ha,[1],81%
same,inhibition at 140 g/ha,[2],99%
same,inhibition at 140 g/ha,[3],94%
same,inhibition at 140 g/ha,[4],54%
same,inhibition at 560 g/ha,[5],100%
same,inhibition at 560 g/ha,[6],100%
same,inhibition at 560 g/ha,[7],100%
same,inhibition at 560 g/ha,[8],100%
same,inhibition at 2360 g/ha,"Drummer silt clay, 2.36 Kg/Ha, rain 0 cm",100%
same,inhibition at 2360 g/ha,"Drummer silt clay, 2.36 Kg/Ha, rain 1.27 cm",100%
same,inhibition at 2360 g/ha,"Drummer silt clay, 2.36 Kg/Ha, rain 5.08 cm",100%
same,inhibition at 2360 g/ha,"Drummer silt clay, 2.36 Kg/Ha, rain 10.16 cm",100%
same,inhibition at 140 g/ha,[9],99%
same,inhibition at 140 g/ha,[10],95%
same,inhibition at 140 g/ha,[11],63%
same,inhibition at 560 g/ha,[12],100%
same,inhibition at 560 g/ha,[13],100%
same,inhibition at 560 g/ha,[14],94%
same,inhibition at 560 g/ha,[15],52%
same,inhibition at 2360 g/ha,[16],100%
same,inhibition at 2360 g/ha,[17],100%
same,inhibition at 2360 g/ha,[18],100%
same,inhibition at 2360 g/ha,[19],95%
same,inhibition at 140 g/ha,[20],14%
same,Fresh Weight,[9],0.05 Grams
same,Fresh Weight,[10],0.22 Grams
same,Fresh Weight,[11],1.53 Grams
same,Fresh Weight,[20],3.51 Grams
same,Fresh Weight,[12],0 Grams
same,Fresh Weight,[13],0 Grams
same,Fresh Weight,[14],0.24 Grams
same,Fresh Weight,[15],1.97 Grams
same,Fresh Weight,[16],0 Grams
same,Fresh Weight,[17],0 Grams
same,Fresh Weight,[18],0 Grams
same,Fresh Weight,[19],0.22 Grams
"Cc1cccc(C(F)(F)F)c1N(COC(C)C)C(=O)CCl [Example 4, N--(isopropoxymethyl)-2'-trifluoromethyl-6'-methyl-2-chloroacetanilide]",inhibition at 140 g/ha,[1],70%
same,inhibition at 140 g/ha,[2],96%
same,inhibition at 140 g/ha,[3],85%
same,inhibition at 560 g/ha,[5],100%
same,inhibition at 560 g/ha,[6],100%
same,inhibition at 560 g/ha,[7],100%
same,inhibition at 560 g/ha,[8],96%
same,inhibition at 2200 g/ha,[21],100%
same,inhibition at 2200 g/ha,[22],100%
same,inhibition at 2200 g/ha,[23],100%
same,inhibition at 2200 g/ha,[24],100%
same,inhibition at 140 g/ha,[9],98%
same,inhibition at 140 g/ha,[10],90%
same,inhibition at 140 g/ha,[11],38%
same,inhibition at 140 g/ha,[25],12%
same,inhibition at 560 g/ha,[12],99%
same,inhibition at 560 g/ha,[13],100%
same,inhibition at 560 g/ha,[14],89%
same,inhibition at 560 g/ha,[15],17%
same,inhibition at 2200 g/ha,[26],100%
same,inhibition at 2200 g/ha,[27],100%
same,inhibition at 2200 g/ha,[28],92%
same,inhibition at 2200 g/ha,[29],71%
same,inhibition at 140 g/ha,"Drummer silt clay, 0.14 Kg/Ha, rain 10.61 cm",47%
same,Fresh Weight,[9],0.01 Grams
same,Fresh Weight,[10],0.41 Grams
same,Fresh Weight,[11],2.77 Grams
same,Fresh Weight,[25],3.62 Grams
same,Fresh Weight,[12],0.02 Grams
same,Fresh Weight,[13],0 Grams
same,Fresh Weight,[14],0.44 Grams
same,Fresh Weight,[15],3.41 Grams
same,Fresh Weight,[26],0 Grams
same,Fresh Weight,[27],0 Grams
same,Fresh Weight,[28],0.31 Grams
same,Fresh Weight,[29],1.18 Grams
"Cc1cccc(C(F)(F)F)c1N(COCC(C)C)C(=O)CCl [Example 5, N--(isobutoxymethyl)-2'-trifluoromethyl-6'-methyl-2-chloroacetanilide]",inhibition at 140 g/ha,[1],12%
same,inhibition at 140 g/ha,[2],26%
same,inhibition at 140 g/ha,[3],20%
same,inhibition at 140 g/ha,[4],12%
same,inhibition at 560 g/ha,[5],50%
same,inhibition at 560 g/ha,[6],100%
same,inhibition at 560 g/ha,[7],93%
same,inhibition at 560 g/ha,[8],84%
same,inhibition at 2200 g/ha,[21],100%
same,inhibition at 2200 g/ha,[22],100%
same,inhibition at 2200 g/ha,[23],100%
same,inhibition at 2200 g/ha,[24],100%
same,inhibition at 140 g/ha,[9],84%
same,inhibition at 140 g/ha,[10],90%
same,inhibition at 140 g/ha,[11],58%
same,inhibition at 560 g/ha,[12],99%
same,inhibition at 560 g/ha,[13],99%
same,inhibition at 560 g/ha,[14],90%
same,inhibition at 560 g/ha,[15],72%
same,inhibition at 2200 g/ha,[26],100%
same,inhibition at 2200 g/ha,[27],100%
same,inhibition at 2200 g/ha,[28],99%
same,inhibition at 2200 g/ha,[29],84%
same,inhibition at 140 g/ha,[20],29%
same,Fresh Weight,[9],0.66 Grams
same,Fresh Weight,[10],0.43 Grams
same,Fresh Weight,[11],1.72 Grams
same,Fresh Weight,[20],2.92 Grams
same,Fresh Weight,[12],0.04 Grams
same,Fresh Weight,[13],0.02 Grams
same,Fresh Weight,[14],0.41 Grams
same,Fresh Weight,[15],1.17 Grams
same,Fresh Weight,[26],0 Grams
same,Fresh Weight,[27],0 Grams
same,Fresh Weight,[28],0.03 Grams
same,Fresh Weight,[29],0.64 Grams
"CCCOCN(C(=O)CCl)c1c(CC)cccc1C(F)(F)F [Example 10, N--(n-propoxymethyl)-2'-trifluoromethyl-6'-ethyl-2-chloroacetanilide]",inhibition at 140 g/ha,[1],90%
same,inhibition at 140 g/ha,[2],85%
same,inhibition at 140 g/ha,[3],80%
same,inhibition at 140 g/ha,[4],70%
same,inhibition at 560 g/ha,[5],99%
same,inhibition at 560 g/ha,[6],98%
same,inhibition at 560 g/ha,[7],98%
same,inhibition at 560 g/ha,[8],98%
same,inhibition at 2200 g/ha,[21],100%
same,inhibition at 2200 g/ha,[22],100%
same,inhibition at 2200 g/ha,[23],99%
same,inhibition at 2200 g/ha,[24],98%
same,inhibition at 140 g/ha,[9],100%
same,inhibition at 140 g/ha,[10],100%
same,inhibition at 140 g/ha,[11],98%
same,inhibition at 560 g/ha,[12],100%
same,inhibition at 560 g/ha,[13],100%
same,inhibition at 560 g/ha,[14],100%
same,inhibition at 560 g/ha,[15],90%
same,inhibition at 2200 g/ha,[27],100%
same,inhibition at 2200 g/ha,[28],100%
same,inhibition at 2200 g/ha,[29],98%
same,inhibition at 140 g/ha,[20],65%
